Test system: 945468-187-T-J2-PDC spheroids viability
Test: Anticancer human tumor 945468-187-T-J2-PDC patient-derived rectal carcinoma cell line growth inhibition [PI3K]
Details: spheroids with HUVEC and MSC; for IC50: curve of first compound; for viability, T/C: stronger effect = lower value
From the text: Combinatorial screen of targeted agents with the PI3K inhibitors inavolisib, alpelisib, duvelisib, and copanlisib in multi-cell type tumor spheroids
A high-throughput screen of multi-cell type tumor spheroids was designed to identify active combinations of targeted small molecules and PI3K pathway inhibitors. Complex spheroids include a stromal component modeled by human endothelial cells (HUVEC) and fibroblasts modeled by human mesenchymal stem cells (MSCs). The concentration ranges selected for each drug and investigational agent were based upon clinically achievable concentrations if the clinical Cmax of the agent was known.
Compounds. The drugs and investigational agents: inavolisib (NSC800729), alpelisib (NSC765974), duvelisib (NSC772469), copanlisib (NSC816437), ipatasertib (NSC767898), afuresertib (NSC778305), talazoparib (NSC767125), sapanisertib (NSC764658), selumetinib (NSC741078), tovorafenib (DAY101, NSC766906), vemurafenib (NSC761431), ravoxertinib (NSC781343), sotorasib (NSC818433), MRTX1133 (NSC 836407), abemaciclib (NSC 768073), palbociclib (NSC758247), venetoclax (NSC 766270), SY5609 (NSC837396), enzalutamide (NSC755605), and darolutamide (NSC825331), were obtained from the National Cancer Institute (NCI) Developmental Therapeutics Program Chemical Repository. The FDA-approved anticancer drug set is available from the NCI Developmental Therapeutics Program. […] The stock solutions were prepared in dimethyl sulfoxide (DMSO, Sigma-Aldrich, St. Louis, MO, cat. D2650) at 800-fold the tested concentration and stored at -70 degrees C prior to their use. All drugs and investigational agents were tested over a range starting from a high concentration at or near the clinical Cmax and decreasing in half-log increments. If the clinical Cmax for an agent had not been determined, the highest concentration tested was 10 microM.
Cell Culture. All cells were maintained in an incubator at 37 degrees C and 5% CO2 with 95% humidity. The PDC lines were cultured according to standard operating procedures established by the NCI PDMR (https://pdmr.cancer.gov/sops/default.htm). All PDCs were thawed and cultured in Matrigel-coated flasks prepared with a working solution of 1X Ham's F-12 nutrient mix, without supplementation (Invitrogen, Waltham, MA, cat. 11765054), 100 U/mL penicillin-streptomycin (Invitrogen, cat. 15140122), and 2.5% Matrigel (Corning Inc., Corning, NY, cat. 354248) for the first three passages. The 354836-022-R-J1-PDC, 475296-252-R-J1-PDC, and 997726-040-R-J2-PDC lines were cultured in 6A media, which includes advanced DMEM/F-12 (Thermo Fisher Scientific, cat. 12634028), 10 mM HEPES (Thermo Fisher Scientific, cat. 15630080), 1X GlutaMAX supplement (Thermo Fisher Scientific, cat. 35050061), 0.1 mg/mL primocin (InvivoGen, San Diego, CA, cat. ant-pm-2), 10% defined fetal bovine serum, heat inactivated (HyClone Laboratories Inc., Logan, UT, cat. SH30070.03HI), 50% L-WRN conditioned media (ATCC, cat. CRL-3276), 1.25 mM N-Acetyl-L-cysteine (Sigma-Aldrich, cat. A9165), 10 mM nicotinamide (Sigma-Aldrich, cat. N0636), 1X B-27 supplement (Thermo Fisher Scientific, cat. 17504044), 1X N-2 supplement (Thermo Fisher Scientific, cat. 17502048), and 10 microM Y-27632 dihydrochloride (Tocris Bioscience, Bristol, United Kingdom, cat. 1254). The 624824-186-R-J2-PDC line was cultured in 6C/Colon 1B media, which includes all 6A media components plus 50 ng/mL human EGF recombinant protein (Thermo Fisher Scientific, cat. PHG0311). […]

[1] = second compound 0.00316 µM, first compound 0.0316 µM
[2] = second compound 0.00316 µM, first compound 0.1 µM
[3] = second compound 0.01 µM, first compound 0.0316 µM
[4] = second compound 0.01 µM, first compound 0.1 µM
[5] = second compound 0.0316 µM, first compound 0.0316 µM
[6] = second compound 0.0316 µM, first compound 0.1 µM
[7] = second compound 0.1 µM, first compound 0.0316 µM
[8] = second compound 0.1 µM, first compound 0.1 µM
[9] = second compound 0.316 µM, first compound 0.0316 µM
[10] = second compound 0.316 µM, first compound 0.1 µM
[11] = second compound 1 µM, first compound 0.0316 µM
[12] = second compound 1 µM, first compound 0.1 µM
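Further: spheroids exposed to compounds for seven days before reading.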

`CC(C)n1nc(-c2ccc3oc(N)nc3c2)c2c(N)ncnc21` + CC(Nc1ccc2c(c1)OCCn1cc(N3C(=O)OCC3C(F)F)nc1-2)C(N)=O was tested, and the IC50 (second compound 0.00316 µM) was > 0.1 µM, the IC50 (second compound 0.01 µM) was > 0.1 µM and the IC50 (second compound 0.0316 µM) was > 0.1 µM. The IC50 (second compound 0.1 µM) was > 0.1 µM, the IC50 (second compound 0.316 µM) was 0.0754 µM and the IC50 (second compound 1 µM) was 0.0267 µM. The viability, T/C (second compound 0.00316 µM, first compound 0.000316 µM) was 141%, the viability, T/C (second compound 0.00316 µM, first compound 0.001 µM) was 114% and the viability, T/C (second compound 0.00316 µM, first compound 0.00316 µM) was 115%. The viability, T/C (second compound 0.00316 µM, first compound 0.01 µM) was 89.4%, the viability, T/C [1] was 107% and the viability, T/C [2] was 83.7%. It also gave a viability, T/C (second compound 0.01 µM, first compound 0.000316 µM) of 168%, a viability, T/C (second compound 0.01 µM, first compound 0.001 µM) of 101% and a viability, T/C (second compound 0.01 µM, first compound 0.00316 µM) of 108%. The viability, T/C (second compound 0.01 µM, first compound 0.01 µM) was 91%, the viability, T/C [3] was 88.8% and the viability, T/C [4] was 71%. It also gave a viability, T/C (second compound 0.0316 µM, first compound 0.000316 µM) of 105%, a viability, T/C (second compound 0.0316 µM, first compound 0.001 µM) of 85.2% and a viability, T/C (second compound 0.0316 µM, first compound 0.00316 µM) of 109%. For the same compound, the viability, T/C (second compound 0.0316 µM, first compound 0.01 µM) was 106%, the viability, T/C [5] was 95.7% and the viability, T/C [6] was 73.4%. It also gave a viability, T/C (second compound 0.1 µM, first compound 0.000316 µM) of 81%, a viability, T/C (second compound 0.1 µM, first compound 0.001 µM) of 112% and a viability, T/C (second compound 0.1 µM, first compound 0.00316 µM) of 108%. For the same compound, the viability, T/C (second compound 0.1 µM, first compound 0.01 µM) was 91.8%, the viability, T/C [7] was 101% and the viability, T/C [8] was 61.4%. The viability, T/C (second compound 0.316 µM, first compound 0.000316 µM) was 84.6%, the viability, T/C (second compound 0.316 µM, first compound 0.001 µM) was 89.7% and the viability, T/C (second compound 0.316 µM, first compound 0.00316 µM) was 82.2%. The viability, T/C (second compound 0.316 µM, first compound 0.01 µM) was 81.5%, the viability, T/C [9] was 75.5% and the viability, T/C [10] was 41.8%. The viability, T/C (second compound 1 µM, first compound 0.000316 µM) was 87.4%, the viability, T/C (second compound 1 µM, first compound 0.001 µM) was 103% and the viability, T/C (second compound 1 µM, first compound 0.00316 µM) was 75.5%. For the same compound, the viability, T/C (second compound 1 µM, first compound 0.01 µM) was 61.1%, the viability, T/C [11] was 52.6% and the viability, T/C [12] was 29.4%.

With `CCCS(=O)(=O)Nc1ccc(F)c(C(=O)c2c[nH]c3ncc(-c4ccc(Cl)cc4)cc23)c1F` + CC(Nc1ccc2c(c1)OCCn1cc(N3C(=O)OCC3C(F)F)nc1-2)C(N)=O the IC50 (second compound 0.00316 µM) was > 10 µM, the IC50 (second compound 0.01 µM) was 4.28 µM and the IC50 (second compound 0.0316 µM) was 5.45 µM. It also gave an IC50 (second compound 0.1 µM) of 6.98 µM, an IC50 (second compound 0.316 µM) of 5.9 µM and an IC50 (second compound 1 µM) of 5.88 µM. It also gave a viability, T/C [1] of 115%, a viability, T/C [2] of 115% and a viability, T/C (second compound 0.00316 µM, first compound 0.316 µM) of 113%. For the same compound, the viability, T/C (second compound 0.00316 µM, first compound 1 µM) was 97.1%, the viability, T/C (second compound 0.00316 µM, first compound 3.16 µM) was 74.7% and the viability, T/C (second compound 0.00316 µM, first compound 10 µM) was 53.6%. It also gave a viability, T/C [3] of 113%, a viability, T/C [4] of 115% and a viability, T/C (second compound 0.01 µM, first compound 0.316 µM) of 105%. For the same compound, the viability, T/C (second compound 0.01 µM, first compound 1 µM) was 77.1%, the viability, T/C (second compound 0.01 µM, first compound 3.16 µM) was 74.8% and the viability, T/C (second compound 0.01 µM, first compound 10 µM) was 7.68%. The viability, T/C [5] was 103%, the viability, T/C [6] was 98.8% and the viability, T/C (second compound 0.0316 µM, first compound 0.316 µM) was 98.8%. It also gave a viability, T/C (second compound 0.0316 µM, first compound 1 µM) of 92.1%, a viability, T/C (second compound 0.0316 µM, first compound 3.16 µM) of 89.2% and a viability, T/C (second compound 0.0316 µM, first compound 10 µM) of 6.32%. It also gave a viability, T/C [7] of 92.3%, a viability, T/C [8] of 109% and a viability, T/C (second compound 0.1 µM, first compound 0.316 µM) of 107%. It also gave a viability, T/C (second compound 0.1 µM, first compound 1 µM) of 92.8%, a viability, T/C (second compound 0.1 µM, first compound 3.16 µM) of 90.2% and a viability, T/C (second compound 0.1 µM, first compound 10 µM) of 32.3%. It also gave a viability, T/C [9] of 83.4%, a viability, T/C [10] of 88.8% and a viability, T/C (second compound 0.316 µM, first compound 0.316 µM) of 85.3%. The viability, T/C (second compound 0.316 µM, first compound 1 µM) was 85.8%, the viability, T/C (second compound 0.316 µM, first compound 3.16 µM) was 78.1% and the viability, T/C (second compound 0.316 µM, first compound 10 µM) was 26.1%. For the same compound, the viability, T/C [11] was 78.2%, the viability, T/C [12] was 81% and the viability, T/C (second compound 1 µM, first compound 0.316 µM) was 77.4%. It also gave a viability, T/C (second compound 1 µM, first compound 1 µM) of 87.9%, a viability, T/C (second compound 1 µM, first compound 3.16 µM) of 80.3% and a viability, T/C (second compound 1 µM, first compound 10 µM) of 24%.

Source: PubChem BioAssay AID1963972 (Molecular Pharmacology Branch, DTP, NCI, 2024)
